Here are results for 22 molecules from patent US12479850B2, “Compound having Axl and c-Met kinase inhibitory activity, preparation thereof and application thereof” (Shanghai Institute of Materia Medica, Chinese Academy of …, priority 2019, dated 2025).

By IC50 is commonly meant the midpoint of a concentration-inhibition curve.

Assay [1] addresses c-Met kinase domain recombinant protein (Homo sapiens, UniProt P08581). Briefly: ELISA kinase activity assay, c-Met. For orientation: ELISA stands for enzyme-linked immunosorbent assay.
Assay [2] has as its target T1, Axl kinase domain recombinant protein (Homo sapiens, UniProt P30530).
T1 sequence (P30530 536-807 limits assumed): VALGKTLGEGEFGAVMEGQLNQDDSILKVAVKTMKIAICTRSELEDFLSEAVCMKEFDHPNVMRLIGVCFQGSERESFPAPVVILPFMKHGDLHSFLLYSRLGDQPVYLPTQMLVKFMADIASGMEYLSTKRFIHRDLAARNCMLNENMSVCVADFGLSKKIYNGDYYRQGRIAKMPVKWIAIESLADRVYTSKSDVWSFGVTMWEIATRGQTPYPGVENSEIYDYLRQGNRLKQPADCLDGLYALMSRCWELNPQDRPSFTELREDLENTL
Kind of assay: ELISA kinase activity assay, Axl.

Sequence of c-Met kinase domain recombinant protein (P08581 1078-1345 limits assumed): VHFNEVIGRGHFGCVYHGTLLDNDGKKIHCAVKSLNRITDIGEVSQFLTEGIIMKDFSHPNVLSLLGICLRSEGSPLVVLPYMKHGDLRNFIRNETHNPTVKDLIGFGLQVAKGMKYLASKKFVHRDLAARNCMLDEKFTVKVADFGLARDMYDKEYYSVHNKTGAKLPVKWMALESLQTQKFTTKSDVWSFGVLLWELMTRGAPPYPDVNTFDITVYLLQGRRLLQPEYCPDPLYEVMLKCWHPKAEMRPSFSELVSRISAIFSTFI

`CC(C)n1cc(C(=O)Nc2ccc(Oc3ccnc(-c4cnn(C)c4)c3)c(F)c2)c(=O)n(-c2ccccc2F)c1=O` [No. 18, N-(3-fluoro-4-((2-(1-methyl-1H-pyrazol-4-yl)pyridin-4-yl)oxy)phenyl)-3-(2-fluorophenyl)-1-isopropyl-2,4-dioxo-1,2,3,4-tetrahydropyrimidin-5-carboxamide]: the figures for the IC50 in assay [1] and in assay [2] were 10 to 100 nM and less than 10 nM, respectively.
The like results for `CC(C)n1cc(C(=O)Nc2ccc(Oc3ccnc(-c4cnn(C)c4)c3)c(F)c2)c(=O)n(-c2ccncc2)c1=O` [No. 20, N-(3-fluoro-4-((2-(1-methyl-1H-pyrazol-4-yl)pyridin-4-yl)oxy)phenyl)-1-isopropyl-2,4-dioxo-3-(pyridin-4-yl)-1,2,3,4-tetrahydropyrimidin-5-carboxamide] were, in that order, more than 100 nM and more than 100 nM.
As for `C#CCn1cc(C(=O)Nc2ccc(Oc3ccnc(-c4cnn(C)c4)c3)c(F)c2)c(=O)n(-c2ccc(F)cc2)c1=O` [No. 8, N-(3-fluoro-4-((2-(1-methyl-1H-pyrazol-4-yl)pyridin-4-yl)oxy)phenyl)-3-(4-fluorophenyl)-2,4-dioxo-1-propargyl-1,2,3,4-tetrahydropyrimidin-5-carboxamide], the IC50 in assay [1] and in assay [2] was 10 to 100 nM in each case.
`CC(C)n1cc(C(=O)Nc2ccc(Oc3ccnc(-c4cnn(C)c4)c3)c(F)c2)c(=O)n(-c2ccc(F)c(F)c2)c1=O` [No. 19, 3-(3,4-difluorophenyl)-N-(3-fluoro-4-((2-(1-methyl-1H-pyrazol-4-yl)pyridin-4-yl)oxy)phenyl)-1-isopropyl-2,4-dioxo-1,2,3,4-tetrahydropyrimidin-5-carboxamide]: the IC50 in assay [1] and in assay [2] was less than 10 nM throughout.
`Cn1cc(-c2cc(Oc3ccc(NC(=O)c4cn(C)c(=O)n(-c5ccc(F)cc5)c4=O)cc3F)ccn2)cn1` [No. 1, N-(3-fluoro-4-((2-(1-methyl-1H-pyrazol-4-yl)pyridin-4-yl)oxy)phenyl)-3-(4-fluorophenyl)-1-methyl-2,4-dioxo-1,2,3,4-tetrahydropyrimidin-5-carboxamide]: the IC50 in assay [1] and in assay [2] was less than 10 nM throughout.
In the case of `CC(C)n1cc(C(=O)Nc2ccc(Oc3ccnc4c3CC(=O)N4)c(F)c2)c(=O)n(-c2ccc(F)cc2)c1=O` [No. 45, N-(3-fluoro-4-((2-oxo-2,3-dihydro-1H-pyrrolo[2,3-b]pyridin-4-yl)oxyl)phenyl)-3-(4-fluorophenyl)-1-isopropyl-2,4-dioxo-1,2,3,4-tetrahydropyrimidin-5-carboxamide], the IC50 in assay [1] was more than 100 nM; in assay [2], 10 to 100 nM.
For the molecule `Cn1cc(-c2cc(Oc3ccc(NC(=O)c4cn(CCO)c(=O)n(-c5ccc(F)cc5)c4=O)cc3F)ccn2)cn1` [No. 9, N-(3-fluoro-4-((2-(1-methyl-1H-pyrazol-4-yl)pyridin-4-yl)oxy)phenyl)-3-(4-fluorophenyl)-1-(2-hydroxyethyl)-2,4-dioxo-1,2,3,4-tetrahydropyrimidin-5-carboxamide], the IC50 in assay [1] was 10 to 100 nM; in assay [2], more than 100 nM.
The like results for `Cn1cc(-c2cc(Oc3ccc(NC(=O)c4cn(-c5ccc(F)cc5)c(=O)n(-c5ccc(F)cc5)c4=O)cc3F)ccn2)cn1` [No. 12, N-(3-fluoro-4-((2-(1-methyl-1H-pyrazol-4-yl)pyridin-4-yl)oxy)phenyl)-1,3-bis(4-fluorophenyl)-2,4-dioxo-1,2,3,4-tetrahydropyrimidin-5-carboxamide] were, in that order, more than 100 nM and more than 100 nM.
The like results for `CC(C)n1nc(C(=O)Nc2ccc(Oc3ccnc(-c4cnn(C)c4)c3)c(F)c2)c(=O)n(-c2ccc(F)cc2)c1=O` [No. 24, N-(3-fluoro-4-((2-(1-methyl-1H-pyrazol-4-yl)pyridin-4-yl)oxy)phenyl)-4-(4-fluorophenyl)-2-isopropyl-3,5-dioxo-2,3,4,5-tetrahydro-1,2,4-triazine-6-carboxamide] were, in that order, 10 to 100 nM and less than 10 nM.
The like results for `COc1cc(-c2cnc(N)c(-c3ccc(NC(=O)c4cn(C(C)C)c(=O)n(-c5ccc(F)cc5)c4=O)cc3F)c2)ccc1OC[C@H]1COCCO1` [No. 39, (R)—N-(4-(5-(4-((1,4-dioxan-2-yl)methoxy)-3-methoxyphenyl)-2-aminopyridin-3-yl)-3-fluorophenyl)-3-(4-fluorophenyl)-1-isopropyl-2,4-dioxo-1,2,3,4-tetrahydropyrimidin-5-carboxamide] were, in that order, 10 to 100 nM and less than 10 nM.
As for `COCCCn1cc(C(=O)Nc2ccc(Oc3ccnc(-c4cnn(C)c4)c3)c(F)c2)c(=O)n(-c2ccc(F)cc2)c1=O` [No. 55, N-(3-fluoro-4-((2-(1-methyl-1H-pyrazol-4-yl)pyridin-4-yl)oxy)phenyl)-3-(4-fluorophenyl)-1-(3-methoxypropyl)-2,4-dioxo-1,2,3,4-tetrahydropyrimidin-5-carboxamide], the IC50 in assay [1] and in assay [2] was 10 to 100 nM throughout.
Regarding `Cn1cc(-c2cc(Oc3ccc(NC(=O)c4cn(C5CCCC5)c(=O)n(-c5ccc(F)cc5)c4=O)cc3F)ccn2)cn1` [No. 11, 1-cyclopentyl-N-(3-fluoro-4-((2-(1-methyl-1H-pyrazol-4-yl)pyridin-4-yl)oxy)phenyl)-3-(4-fluorophenyl)-2,4-dioxo-1,2,3,4-tetrahydropyrimidin-5-carboxamide], the IC50 in assay [1] and in assay [2] was less than 10 nM each time.
`CC(C)n1nc(C(=O)Nc2ccc(Oc3ccnc(-c4cnn(C)c4)c3)cc2)c(=O)n(-c2ccc(F)cc2)c1=O` [No. 23, 4-(4-fluorophenyl)-2-isopropyl-N-(4-((2-(1-methyl-1H-pyrazol-4-yl)pyridin-4-yl)oxy)phenyl)-3,5-dioxo-2,3,4,5-tetrahydro-1,2,4-triazin-6-carboxamide]: the IC50 in assay [1] and in assay [2] was 10 to 100 nM in each case.
On to `COc1ccc(-n2c(=O)c(C(=O)Nc3ccc(Oc4ccnc(-c5cnn(C)c5)c4)c(F)c3)cn(C(C)C)c2=O)cc1` [No. 16, N-(3-fluoro-4-((2-(1-methyl-1H-pyrazol-4-yl)pyridin-4-yl)oxy)phenyl)-1-isopropyl-3-(4-methoxyphenyl)-2,4-dioxo-1,2,3,4-tetrahydropyrimidin-5-carboxamide], for which the IC50 in assay [1] and in assay [2] was more than 100 nM in each case.
As to `CC(C)n1cc(C(=O)Nc2ccc(Oc3ccnc(-c4cnn(C)c4)c3)c(F)c2)c(=O)n(-c2ccccc2)c1=O` [No. 13, N-(3-fluoro-4-((2-(1-methyl-1H-pyrazol-4-yl)pyridin-4-yl)oxy)phenyl)-1-isopropyl-2,4-dioxo-3-phenyl-1,2,3,4-tetrahydropyrimidin-5-carboxamide], the IC50 in assay [1] and in assay [2] was 10 to 100 nM each time.
With `CC(C)n1cc(C(=O)Nc2ccc(-c3cc(-c4cn[nH]c4)cnc3N)c(F)c2)c(=O)n(-c2ccc(F)cc2)c1=O` [No. 40, N-(4-(2-amino-5-(1H-pyrazol-4-yl)pyridin-3-yl)-3-fluorophenyl)-3-(4-fluorophenyl)-1-isopropyl-2,4-dioxo-1,2,3,4-tetrahydropyrimidin-5-carboxamide], the IC50 in assay [1] and in assay [2] was more than 100 nM each time.
Consider `CCn1cc(C(=O)Nc2ccc(Oc3ccnc(-c4cnn(C)c4)c3)c(F)c2)c(=O)n(-c2ccc(F)cc2)c1=O` [No. 2, 1-ethyl-N-(3-fluoro-4-((2-(1-methyl-1H-pyrazol-4-yl)pyridin-4-yl)oxy)phenyl)-3-(4-fluorophenyl)-2,4-dioxo-1,2,3,4-tetrahydropyrimidin-5-formamide], for which the IC50 in assay [1] and in assay [2] was less than 10 nM in each case.
`COCCn1cc(C(=O)Nc2ccc(Oc3ccnc(-c4cnn(C)c4)c3)c(F)c2)c(=O)n(-c2ccc(F)cc2)c1=O` [No. 10, N-(3-fluoro-4-((2-(1-methyl-1H-pyrazol-4-yl)pyridin-4-yl)oxy)phenyl)-3-(4-fluorophenyl)-1-(2-methoxyethyl)-2,4-dioxo-1,2,3,4-tetrahydropyrimidin-5-carboxamide]: the IC50 in assay [1] and in assay [2] was less than 10 nM each time.
In the case of `CC(C)n1cc(C(=O)Nc2ccc(Oc3ccnc(-c4cnn(C)c4)c3)c(F)c2)c(=O)n(-c2cnn(C)c2)c1=O` [No. 21, N-(3-fluoro-4-((2-(1-methyl-1H-pyrazol-4-yl)pyridin-4-yl)oxy)phenyl)-1-isopropyl-3-(1-methyl-1H-pyrazol-4-yl)-2,4-dioxo-1,2,3,4-tetrahydropyrimidin-5-carboxamide], the IC50 in assay [1] is more than 100 nM; in assay [2], 10 to 100 nM.
`CC(C)n1cc(C(=O)Nc2ccc(Oc3ccnc4c3CCN4)c(F)c2)c(=O)n(-c2ccc(F)cc2)c1=O` [No. 51, N-(4-((2,3-dihydro-1H-pyrrolo[2,3-b]pyridin-4-yl)oxy)-3-fluorophenyl)-3-(4-fluorophenyl)-1-isopropyl-2,4-dioxo-1,2,3,4-tetrahydropyrimidin-5-carboxamide]: the 50% inhibitory concentration (IC50) in assay [1] and in assay [2] was less than 10 nM throughout.
For the molecule `CC(C)n1cc(C(=O)Nc2ccc(Oc3ccnc(-c4cnn(C)c4)c3)c(F)c2)c(=O)n(-c2ccc(Cl)cc2)c1=O` [No. 14, 3-(4-chlorophenyl)-N-(3-fluoro-4-((2-(1-methyl-1H-pyrazol-4-yl)pyridin-4-yl)oxy)phenyl)-1-isopropyl-2,4-dioxo-1,2,3,4-tetrahydropyrimidin-5-carboxamide], the IC50 in assay [1] and in assay [2] was less than 10 nM in each case.
Take `CC(C)n1cc(C(=O)Nc2ccc(Oc3ccnc4c3OCCN4)cc2)c(=O)n(-c2ccc(F)cc2)c1=O` [No. 48, N-(4-((3,4-dihydro-2H-pyridino[3,2-b][1,4]oxazin-8-yl)oxy)phenyl)-3-(4-fluorophenyl)-1-isopropyl-2,4-dioxo-1,2,3,4-tetrahydropyrimidin-5-carboxamide]: the IC50 is 10 to 100 nM in assay [1] and less than 10 nM in assay [2].
